# Data reported in patent publication US20240024317A1, “CANCER TREATMENT USING BOSENTAN IN COMBINATION WITH A CHECKPOINT INHIBITOR” (Materia Therapeutics Inc., priority 2020, published 2024).
# What was measured:
# Format in all cases: in vivo, mice
# K7M2 wt tumors [1] = test: Tumor growth in osteosarcoma model, ketotifen, doxorubicin, anti-PD-L1; conditions: for tumor growth: monotherapy
# Protocol: (§1) A fibrosarcoma syngeneic tumor model was generated by subcutaneous implantation of 2.5×10^5 MCA205 cells in 50 μL of serum-free medium into the flank of 6-week old C57BL/6 female mice. A osteosarcoma syngeneic tumor model was generated by implanting K7M2 wt tumor chunks into the fat pad of 6-week old BALB/c female mice.
# (§2) Mice bearing sarcoma tumors were pre-treated with 10 mg/kg daily ketotifen followed by three or four doses of doxorubicin and/or an immune checkpoint inhibitor anti-PD-L1 antibody. Mouse monoclonal anti-PD-L1 (B7-H1, clone 10F.9G2, BioXCell) was used. Doxorubicin hydrochloride was prepared as a ready-made solution of 2 mg/ml. Anti-PD-L1 antibody was administered at a final dose of 10 mg/kg and doxorubicin at 5 mg/kg.
# (§3) Primary tumors were resected and stored when they reached an average size of 700 mm^3 on day 16 and mice were monitored for re-challenge experiments. Similarly, K7M2 wt tumors were pretreated with daily ketotifen 10 mg/kg or equal volume of diluent (control group) once the average tumor size reached 80 mm^3 (day 18) and continued until completion of neoadjuvant treatment. Doxorubicin and anti-PD-L1 combination treatment started when tumors reached an average size of 150 mm^3 (day 22) and repeated on day 25, 28 and 31. Study ended when tumors reached a mean volume of 550 mm 3 (day 33). Mice were sacrificed and tumors were collected for ex vivo analysis.
# MCA205 tumors [2] = test: Tumor growth in fibrosarcoma model, ketotifen, doxorubicin, anti-PD-L1; conditions: for tumor growth: monotherapy
# Protocol: as §1, §2
# Mice bearing MCA205 tumors were pretreated with daily ketotifen 10 mg/kg or equal volume of diluent (control group) once the average tumor size reached 40 mm^3, prior to the neoadjuvant treatment. Doxorubicin and anti-PD-L1 combination treatment initiated when tumors reached an average size of 150 mm^3 (day 7) and was administered as i.p. injections every three days (day 7, 10, and 13) for three doses. Daily ketotifen continued until completion of doxorubicin-anti-PD-L1 combination treatment.
# as §3
# MCA205 tumors [3] = test: Interstitial fluid pressure (IFP), wick-in-needle technique, ketotifen
# Protocol: Interstitial fluid pressure (IFP) was measured in vivo using the “wick-in-needle” technique after mice were anesthetized with i.p. injection of Avertin and prior to tumor excision. Additional information regarding the wick-in-needle technique is described in Dong et al., Involvement of mast cell chymase in burn wound healing in hamsters 2013; 5:643-7 and Shankaran et al. IFNγ and lymphocytes prevent primary tumour development and shape tumour immunogenicity 2001; 410:1107-11, the contents of which are incorporated herein by reference in their entirety.
# MCA205 tumors [4] = test: Contrast-enhanced ultrasound of vascular and functional perfusion, ketotifen; conditions: during ketotifen treatment
# Protocol: (§4) Vascular perfusion and functional perfusion were measured simultaneously during the course of ketotifen treatment, using contrast-enhanced ultrasound in mice bearing MCA205 and mice bearing K7M2 wt tumors.
# K7M2 wt tumors [5] = test: as above; conditions: during ketotifen treatment
# Protocol: as §4
# [6] = test system: MCA205 fibrosarcoma tumors; test: Shear wave elastography of tumor elastic modulus, ketotifen
# From the text: The mechanotherapeutic potential of ketotifen in reducing matrix stiffness was primarily assessed non-invasively and longitudinally using ultrasound elastography. Assessment of tumor elastic modulus was […] via shear wave elastography using a Philips EPIQ Elite Ultrasound scanner with an eL 18-4 linear array.
# [7] = anti-PD-L1 (10 mg/kg) and/or doxorubicin (5 mg/kg) combined with 10 mg/kg daily ketotifen
Structure (SMILES),tumor growth (K7M2 wt tumors [1]),tumor growth (MCA205 tumors [2]),IFP (MCA205 tumors [3]; 10 mg/kg dose of ketotifen compared with other doses),"IFP (MCA205 tumors [3]; all doses of ketotifen, daily for 7 days)",antitumor response (K7M2 wt tumors [1]; [7]),antitumor response (MCA205 tumors [2]; [7]),functional perfusion (MCA205 tumors [4]),vascular perfusion (MCA205 tumors [4]),functional perfusion (K7M2 wt tumors [5]),vascular perfusion (K7M2 wt tumors [5]),Young's modulus ([6]; 10 mg/kg ketotifen) [kPa],tissue stiffness (ultrasound elastography) ([6]; 10 mg/kg ketotifen compared with other doses)
COc1cccc2c1C(=O)c1c(O)c3c(c(O)c1C2=O)C[C@@](O)(C(=O)CO)C[C@@H]3O[C@H]1C[C@H](N)[C@H](O)[C@H](C)O1 [doxorubicin],Neither anti-PD-L1 nor doxorubicin monotherapies significantly affected tumor growth,Neither anti-PD-L1 nor doxorubicin monotherapies significantly affected tumor growth,,,,,,,,,,
CN1CCC(=C2c3ccccc3CC(=O)c3sccc32)CC1 [ketotifen],no antitumor effect,no antitumor effect,greatest effect,reduced the IFP,induced a significant antitumor response,induced a significant antitumor response,significant increase,significant increase,significant increase,significant increase,20,reduced tissue stiffness the most
